# Measured values reported in US20260053760A1, “Compositions Suitable for Use on Skin Afflicted with Eczema” (Kenvue Brands LLC, priority 2022, published 2026).
# Test system: Staphylococcus epidermidis (ATCC 12228)
# Experiment: In vitro bacteria competition assay (co-culture)
# Assay type: cell-based
# Conditions: 1:1 co-culture with S. aureus in Nutrient Broth, 24 hours aerobic, colony counts; percentages w/v %
# Method: In vitro bacteria competition assay evaluated Staphylococcus epidermidis (ATCC 12228, skin health associated strain) and Staphylococcus aureus (ATCC 6538, human lesion isolate) co-culture in the presence of test materials. Percentages are w/v % in liquid medium (Nutrient Broth, Culture Media and Supplies Inc.) To mimic the microenvironment of the skin surface, an aerobic, co-culture system of S. epidermidis and S. aureus was established. 50 μL S. epidermidis and 50 μL S. aureus (a 1:1 ratio) were inoculated (50 μL at approximately 5.0×10^6 CFU/mL each) in Nutrient Broth and in the presence of the test materials as specified in Table 14 below. [table] Test groups were incubated aerobically for 24 hours (n=3 per test group) After 24 hours, each test group was plated onto agar and incubated aerobically for 24 hours […]. After incubation, colonies were counted, and CFU/mL calculated. S. epidermidis and S. aureus colonies were differentiated on agar (Tryptic Soy Agar+5% sheep's blood, BD Diagnostics) based on representative morphology.
smiles,measurement,value
"CC(O)C(=O)O (stereo not shown) [Lactic Acid (1.1%), Lactic acid]",Bacteria Competition Assay: S. epidermidis growth versus untreated,inhibited
